ChEMBL document CHEMBL1201862, “PubChem BioAssay data set” (2004)
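These data come from cells grown in 96-well plates and exposed to compound for 48 hours at five concentrations. GI50 marks 50% less growth.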 Calls of active or inactive are those of the source. No stated cut-off is given here; in the data, active = GI50 up to about 1.1 µM and inactive = higher.

Experiments:
Test in all cases: NCI anticancer screen, dose series, 48 h
[1] = test system: BT-549
[2] = test system: NCI/ADR-RES
[3] = test system: HCT-15
[4] = test system: MDA-MB-231
[5] = test system: HL-60
[6] = test system: Malme-3M
[7] = test system: TK-10
[8] = test system: UO-31
[9] = test system: IGROV-1
[10] = test system: NCI-H23
[11] = test system: RXF 393
[12] = test system: EKVX
[13] = test system: SF-268
[14] = test system: PC-3
[15] = test system: SK-MEL-5
[16] = test system: OVCAR-5
[17] = test system: 786-0
[18] = test system: OVCAR-4
[19] = test system: NCI-H522
[20] = test system: A498
[21] = test system: K562
[22] = test system: NCI-H460
[23] = test system: SW-620
[24] = test system: COLO 205
[25] = test system: MCF7
[26] = test system: MDA-N
[27] = test system: OVCAR-8
[28] = test system: UACC-62
[29] = test system: SNB-75
[30] = test system: A549
[31] = test system: KM12
[32] = test system: SR
[33] = test system: HCC 2998
[34] = test system: RPMI-8226
[35] = test system: CAKI-1
[36] = test system: DU-145
[37] = test system: SK-OV-3
[38] = test system: SK-MEL-28
[39] = test system: HT-29
[40] = test system: CCRF-CEM
[41] = test system: T47D
[42] = test system: HCT-116
[43] = test system: U-251
[44] = test system: Hs-578T
[45] = test system: SN12C
[46] = test system: HOP-92
[47] = test system: SK-MEL-2
[48] = test system: MDA-MB-435
[49] = test system: MOLT-4
[50] = test system: ACHN
[51] = test system: SNB-19
[52] = test system: OVCAR-3
[53] = test system: M14
[54] = test system: SF-539
[55] = test system: HOP-62
[56] = test system: UACC-257
[57] = test system: LOX IMVI
[58] = test system: SF-295
[59] = test system: NCI-H226

## Clc1cc(OC2C3CC4CC(C3)CC2C4)nc(Cl)n1 (centres undefined)
[1]
  GI50: 19.8 µM (inactive)
[2]
  GI50: 31.7 µM (inactive)
[3]
  GI50: 14 µM
[4]
  GI50: 13.7 µM (inactive)
[5]
  GI50: 3.08 µM (inactive)
[6]
  GI50: 14.9 µM (inactive)
[7]
  GI50: 30.7 µM (inactive)
[8]
  GI50: 2.88 µM (inactive)
[9]
  GI50: 10.6 µM (inactive)
[10]
  GI50: 14.8 µM (inactive)
[11]
  GI50: 12.8 µM (inactive)
[12]
  GI50: 7.29 µM (inactive)
[13]
  GI50: 19.2 µM (inactive)
[14]
  GI50: 19.2 µM (inactive)
[15]
  GI50: 17.9 µM (inactive)
[16]
  GI50: 21.3 µM (inactive)
[17]
  GI50: 16.8 µM (inactive)
[18]
  GI50: 17.1 µM (inactive)
[19]
  GI50: 12.4 µM (inactive)
[20]
  GI50: 19.1 µM (inactive)
[21]
  GI50: 4.62 µM (inactive)
[22]
  GI50: 17.7 µM (inactive)
[23]
  GI50: 13.9 µM (inactive)
[24]
  GI50: 18.6 µM (inactive)
[25]
  GI50: 18.3 µM (inactive)
[26]
  GI50: 18.8 µM (inactive)
[27]
  GI50: 26.1 µM (inactive)
[28]
  GI50: 12.2 µM (inactive)
[29]
  GI50: 39 µM (inactive)
[30]
  GI50: 29.6 µM (inactive)
[31]
  GI50: 20.8 µM (inactive)
[32]
  GI50: 3.52 µM (inactive)
[33]
  GI50: 1.96 µM (inactive)
[34]
  GI50: 21 µM (inactive)
[35]
  GI50: 0.723 µM (active)
[36]
  GI50: 19 µM (inactive)
[37]
  GI50: 67.5 µM (inactive)
[38]
  GI50: 15 µM (inactive)
[39]
  GI50: 15.4 µM (inactive)
[40]
  GI50: 16.7 µM (inactive)
[41]
  GI50: 20.1 µM (inactive)
[42]
  GI50: 14.3 µM (inactive)
[43]
  GI50: 17 µM (inactive)
[44]
  GI50: 18.9 µM (inactive)
[45]
  GI50: 16.1 µM (inactive)
[46]
  GI50: 1.64 µM (inactive)
[47]
  GI50: 12 µM (inactive)
[48]
  GI50: 17.4 µM (inactive)
[49]
  GI50: 16.9 µM (inactive)
[50]
  GI50: 17.7 µM (inactive)
[51]
  GI50: 36.4 µM (inactive)
[52]
  GI50: 18.1 µM (inactive)
[53]
  GI50: 16.2 µM (inactive)
[54]
  GI50: 20.7 µM (inactive)
[55]
  GI50: 25.9 µM (inactive)
[56]
  GI50: 13.9 µM (inactive)
[57]
  GI50: 3.86 µM (inactive)
[58]
  GI50: 18 µM (inactive)

## CC(C)(C)OC(=O)N1C/C=C\C(=O)C2(OCCO2)c2ccccc21
[1]
  GI50: 22.5 µM (inactive)
[2]
  GI50: 47.5 µM (inactive)
[3]
  GI50: 31.7 µM
[4]
  GI50: 19.6 µM (inactive)
[6]
  GI50: 22.7 µM (inactive)
[7]
  GI50: 24.3 µM (inactive)
[8]
  GI50: 17.7 µM (inactive)
[9]
  GI50: 16.9 µM (inactive)
[10]
  GI50: 36.1 µM (inactive)
[11]
  GI50: 21.2 µM (inactive)
[12]
  GI50: 31.3 µM (inactive)
[13]
  GI50: 34 µM (inactive)
[14]
  GI50: 29.4 µM (inactive)
[15]
  GI50: 16.5 µM (inactive)
[16]
  GI50: > 100 µM (inactive)
[17]
  GI50: 23.9 µM (inactive)
[18]
  GI50: 28.4 µM (inactive)
[19]
  GI50: 24 µM (inactive)
[59]
  GI50: 19.1 µM (inactive)
[20]
  GI50: > 100 µM (inactive)
[21]
  GI50: 22 µM (inactive)
[22]
  GI50: 22.7 µM (inactive)
[23]
  GI50: 25.1 µM (inactive)
[24]
  GI50: 17.7 µM (inactive)
[25]
  GI50: 31.4 µM (inactive)
[26]
  GI50: 20.4 µM (inactive)
[27]
  GI50: 24.9 µM (inactive)
[29]
  GI50: 28.2 µM (inactive)
[30]
  GI50: 35.2 µM (inactive)
[31]
  GI50: 31.6 µM (inactive)
[32]
  GI50: 25.8 µM (inactive)
[34]
  GI50: 20.4 µM (inactive)
[35]
  GI50: 33.7 µM (inactive)
[36]
  GI50: 28.6 µM (inactive)
[37]
  GI50: 37.3 µM (inactive)
[38]
  GI50: 22.5 µM (inactive)
[39]
  GI50: 19.2 µM (inactive)
[40]
  GI50: 25.4 µM (inactive)
[41]
  GI50: 21.3 µM (inactive)
[42]
  GI50: 17.4 µM (inactive)
[43]
  GI50: 29.9 µM (inactive)
[44]
  GI50: 45 µM (inactive)
[45]
  GI50: 26.5 µM (inactive)
[46]
  GI50: 15.9 µM (inactive)
[47]
  GI50: 24.5 µM (inactive)
[48]
  GI50: 17.7 µM (inactive)
[49]
  GI50: 19.5 µM (inactive)
[50]
  GI50: 34.2 µM (inactive)
[51]
  GI50: 35.5 µM (inactive)
[52]
  GI50: 15.7 µM (inactive)
[53]
  GI50: 20.7 µM (inactive)
[54]
  GI50: 22.1 µM (inactive)
[55]
  GI50: 48.9 µM (inactive)
[56]
  GI50: 20.8 µM (inactive)
[57]
  GI50: 16.7 µM (inactive)
[58]
  GI50: 26.4 µM (inactive)
